From US8673905B2, “Imidazo pyrazines” (Hoffmann-La Roche Inc., priority 2011, dated 2014)
Where a name gives a salt, the structure may show the parent alone.

Tests used:
MV4-11 cells = test: Cell Glo Viability Assay (Luminescence), MV4-11; assay type: cell-based; details: Homo sapiens, 120 h; MV4-11 cells (mutated FLT3), 5 days, CellTiter-Glo; read-out: Cellular EC50 (μM) MV4-11
Experimental: (§1) Molm13 cells, a human acute monocytic leukemia cell line, and MV4-11 cells, a human leukemia cell line known to express mutated FLT3 cells (both from ATCC) were seeded separately at 2000 cells per well in 90 μL of RPMI1640 medium supplemented with 10% FBS in 96-well black-walled plates (BD Falcon). Test compounds were diluted at ten times of assay concentrations, 10 μL was added into duplicate wells. Plates were incubated at 37° C. with 5% CO2 for 5 days. Cell viability was assayed by CellTiter-Glo® Luminescent Cell Viability Assay (Promega) following manufacturer's protocol.
(§2) The results of this assay, given as EC50 values, indicate the concentration of test compound that inhibits tumor cell proliferation by 50%.

Molm13 cells = test: Cell Glo Viability Assay (Luminescence), Molm13; assay type: cell-based; details: Homo sapiens, MOLM-13, 120 h, 5 days, CellTiter-Glo, read-out: Cellular EC50 (μM) Molm13
Experimental: as §1, §2

human recombinant FLT3 = human recombinant FLT3 (Homo sapiens (Human), UniProt P36888); test: FLT3 Kinase Assay (Caliper mobility shift); assay type: biochemical; details: for inhibition at 10 µM: 10 μM test compound, reported where IC50 was not determined, read-out: % inhibition of FLT3 at 10 μM test compound concentration; for IC50: 100 μM ATP, 28° C., 90 minutes, read-out: Enzyme IC50 (μM) FLT3
Experimental: After incubation, the reaction product was analyzed by electrophoretic mobility shift run on Caliper by manufacturer's protocol.

Chain of human recombinant FLT3 (P36888 27-993): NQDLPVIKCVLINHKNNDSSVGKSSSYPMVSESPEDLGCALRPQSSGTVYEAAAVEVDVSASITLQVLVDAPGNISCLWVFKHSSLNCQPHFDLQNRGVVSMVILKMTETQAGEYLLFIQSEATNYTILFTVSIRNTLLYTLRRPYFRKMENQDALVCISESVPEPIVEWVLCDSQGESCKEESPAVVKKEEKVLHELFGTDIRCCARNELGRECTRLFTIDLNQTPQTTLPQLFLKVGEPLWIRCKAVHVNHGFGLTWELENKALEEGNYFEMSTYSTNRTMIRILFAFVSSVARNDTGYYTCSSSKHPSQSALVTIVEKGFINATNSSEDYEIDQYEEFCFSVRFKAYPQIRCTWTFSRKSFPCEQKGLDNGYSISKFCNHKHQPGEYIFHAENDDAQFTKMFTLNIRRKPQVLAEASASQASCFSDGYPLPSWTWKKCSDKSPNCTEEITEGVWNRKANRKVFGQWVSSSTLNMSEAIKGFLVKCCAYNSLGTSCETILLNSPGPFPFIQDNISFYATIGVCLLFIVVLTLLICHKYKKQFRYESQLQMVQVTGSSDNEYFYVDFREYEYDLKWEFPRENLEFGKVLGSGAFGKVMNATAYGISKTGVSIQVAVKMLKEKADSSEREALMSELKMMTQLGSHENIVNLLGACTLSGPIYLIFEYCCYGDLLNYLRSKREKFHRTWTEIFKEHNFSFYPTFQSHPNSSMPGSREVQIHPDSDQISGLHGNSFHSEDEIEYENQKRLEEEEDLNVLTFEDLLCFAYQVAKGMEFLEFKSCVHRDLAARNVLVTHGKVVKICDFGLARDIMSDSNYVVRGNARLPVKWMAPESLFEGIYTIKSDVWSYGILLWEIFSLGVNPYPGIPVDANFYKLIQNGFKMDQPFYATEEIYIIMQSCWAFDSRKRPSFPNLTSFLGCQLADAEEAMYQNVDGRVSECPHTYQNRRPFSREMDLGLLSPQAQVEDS

inhibition at 10 µM (human recombinant FLT3)	IC50 (human recombinant FLT3)	SMILES	EC50 (MV4-11 cells)	EC50 (Molm13 cells)
		c1ccc(CNc2nccc(-c3cnc4c(NCCN5CCOCC5)nccn34)n2)cc1 [Example 72, [3-(2-Benzylamino-pyrimidin-4-yl)-imidazo[1,2-a]pyrazin-8-yl]-(2-morpholin-4-yl-ethyl)-amine; hydrochloride]	0.124 µM	0.171 µM
		Clc1ccccc1CNc1nccc(-c2cnc3c(NCCN4CCOCC4)nccn23)n1 [Example 88, {3-[2-(2-Chloro-benzylamino)-pyrimidin-4-yl]-imidazo[1,2-a]pyrazin-8-yl}-(2-morpholin-4-yl-ethyl)-amine; hydrochloride]	0.055 µM	0.037 µM
		NCCC(Nc1cccc(-c2cnc3c(N[C@H]4CC[C@H](N)CC4)nccn23)n1)c1ccccc1 (stereo partly drawn) [Example 81, N-{3-[6-(3-Amino-1-phenyl-propylamino)-pyridin-2-yl]-imidazo[1,2-a]pyrazin-8-yl}-cyclohexane-1,4-diamine; hydrochloride]	0.288 µM	0.255 µM
		N[C@H]1CC[C@H](Nc2nccn3c(-c4cccc(NCc5ccc(Cl)cc5)n4)cnc23)CC1 [Example 86, N-{3-[6-(4-Chloro-benzylamino)-pyridin-2-yl]-imidazo[1,2-a]pyrazin-8-yl}-cyclohexane-1,4-diamine; hydrochloride]	0.385 µM	0.353 µM
33.5%		CN1CCN(c2nccn3c(-c4ccnc(NCc5cccs5)n4)cnc23)CC1 [Example 64, {4-[8-(4-Methyl-piperazin-1-yl)-imidazo[1,2-a]pyrazin-3-yl]-pyrimidin-2-yl}-thiophen-2-ylmethyl-amine; hydrochloride]		
	< 0.005 µM	N[C@H]1CC[C@H](Nc2nccn3c(-c4cccc(NCc5ccccc5Cl)n4)cnc23)CC1 [Example 85, N-{3-[6-(2-Chloro-benzylamino)-pyridin-2-yl]-imidazo[1,2-a]pyrazin-8-yl}-cyclohexane-1,4-diamine; hydrochloride]	< 0.014 µM	< 0.014 µM
	< 0.005 µM	N[C@H]1CC[C@H](Nc2nccn3c(-c4ccnc(NCc5ccccc5Cl)n4)cnc23)CC1 [Example 83, N-{3-[2-(2-Chloro-benzylamino)-pyrimidin-4-yl]-imidazo[1,2-a]pyrazin-8-yl}-cyclohexane-1,4-diamine; hydrochloride]	0.016 µM	0.021 µM
	< 0.005 µM	N[C@H]1CC[C@H](Nc2nccn3c(-c4cccc(NCc5ccsc5)n4)cnc23)CC1 [Example 84, N-(3-{6-[(Thiophen-3-ylmethyl)-amino]-pyridin-2-yl}-imidazo[1,2-a]pyrazin-8-yl)-cyclohexane-1,4-diamine; hydrochloride]	0.068 µM	0.056 µM
29.2%		CN1CCN(c2nccn3c(-c4ccnc(NCc5ccc(Cl)cc5)n4)cnc23)CC1 [Example 59, (4-Chloro-benzyl)-{4-[8-(4-methyl-piperazin-1-yl)-imidazo[1,2-a]pyrazin-3-yl]-pyrimidin-2-yl}-amine; hydrochloride]		
	< 0.005 µM	NCCC(Nc1cccc(-c2cnc3c(NCCN4CCOCC4)nccn23)n1)c1cccc(Cl)c1 (stereo not drawn) [Example 90, 1-(3-Chloro-phenyl)-N-1-{6-[8-(2-morpholin-4-yl-ethylamino)-imidazo[1,2-a]pyrazin-3-yl]-pyridin-2-yl}-propane-1,3-diamine hydrochloride]	< 0.014 µM	0.034 µM
		N[C@H]1CC[C@H](Nc2nccn3c(-c4cccc(NCc5cccs5)n4)cnc23)CC1 [Example 87, N-(3-{6-[(Thiophen-2-ylmethyl)-amino]-pyridin-2-yl}-imidazo[1,2-a]pyrazin-8-yl)-cyclohexane-1,4-diamine; hydrochloride]	0.07 µM	0.074 µM
	< 0.005 µM	N[C@H]1CC[C@H](Nc2nccn3c(-c4ccnc(NCc5cccc(Cl)c5)n4)cnc23)CC1 [Example 67, N-{3-[2-(3-Chloro-benzylamino)-pyrimidin-4-yl]-imidazo[1,2-a]pyrazin-8-yl}-cyclohexane-1,4-diamine; hydrochloride]	0.017 µM	0.049 µM
	< 0.005 µM	NCC(Nc1cccc(-c2cnc3c(N[C@H]4CC[C@H](N)CC4)nccn23)n1)c1ccccc1 (stereo partly drawn) [Example 80, N-{3-[6-(2-Amino-1-phenyl-ethylamino)-pyridin-2-yl]-imidazo[1,2-a]pyrazin-8-yl}-cyclohexane-1,4-diamine; hydrochloride]	< 0.014 µM	0.041 µM
		CN1CCN(c2nccn3c(-c4ccnc(NC(CN)c5cccc(Cl)c5)n4)cnc23)CC1 (stereo not drawn) [Example 79, 1-(3-Chloro-phenyl)-N1-{4-[8-(4-methyl-piperazin-1-yl)-imidazo[1,2-a]pyrazin-3-yl]-pyrimidin-2-yl}-ethane-1,2-diamine; hydrochloride]	1.01 µM	1.97 µM
		Clc1cccc(CNc2nccc(-c3cnc4c(NCCN5CCOCC5)nccn34)n2)c1 [Example 89, {3-[2-(3-Chloro-benzylamino)-pyrimidin-4-yl]-imidazo[1,2-a]pyrazin-8-yl}-(2-morpholin-4-yl-ethyl)-amine; hydrochloride]	0.06 µM	0.075 µM
	< 0.005 µM	N[C@H]1CC[C@H](Nc2nccn3c(-c4ccnc(NCc5ccccc5)n4)cnc23)CC1 [Example 68, N-[3-(2-Benzylamino-pyrimidin-4-yl)-imidazo[1,2-a]pyrazin-8-yl]-cyclohexane-1,4-diamine; hydrochloride]	0.052 µM	0.061 µM
		CC(C)Nc1nccc(-c2cnc3c(NCCO)nccn23)n1 [Example 30, 2-[3-(2-Isopropylamino-pyrimidin-4-yl)-imidazo[1,2-a]pyrazin-8-ylamino]-ethanol]	0.745 µM	2.19 µM
	< 0.005 µM	NCC(Nc1cccc(-c2cnc3c(NCCN4CCOCC4)nccn23)n1)c1cccc(Cl)c1 (stereo not drawn) [Example 91, 1-(3-Chloro-phenyl)-N-1-{6-[8-(2-morpholin-4-yl-ethylamino)-imidazo[1,2-a]pyrazin-3-yl]-pyridin-2-yl}-ethane-1,2-diamine hydrochloride]	< 0.014 µM	< 0.014 µM
13.2%		CN1CCN(c2nccn3c(-c4cccc(NCc5ccc(Cl)cc5)n4)cnc23)CC1 [Example 71, (4-Chloro-benzyl)-{6-[8-(4-methyl-piperazin-1-yl)-imidazo[1,2-a]pyrazin-3-yl]-pyridin-2-yl}-amine; hydrochloride]		
		CN1CCN(c2nccn3c(-c4ccnc(NC(CN)c5ccsc5)n4)cnc23)CC1 (stereo not drawn) [Example 75, N1-{4-[8-(4-Methyl-piperazin-1-yl)-imidazo[1,2-a]pyrazin-3-yl]-pyrimidin-2-yl}-1-thiophen-3-yl-ethane-1,2-diamine; hydrochloride]	0.878 µM	1.69 µM
		CNc1nccc(-c2cnc3c(NC4CCNCC4)nccn23)n1 [Example 26, [3-(2-Methylamino-pyrimidin-4-yl)-imidazo[1,2-a]pyrazin-8-yl]-piperidin-4-yl-amine]	1.12 µM	2.56 µM
	< 0.005 µM	NCCC(Nc1nccc(-c2cnc3c(N[C@H]4CC[C@H](N)CC4)nccn23)n1)c1ccccc1 (stereo partly drawn) [Example 76, N-{3-[2-(3-Amino-1-phenyl-propylamino)-pyrimidin-4-yl]-imidazo[1,2-a]pyrazin-8-yl}-cyclohexane-1,4-diamine; hydrochloride]	0.232 µM	0.301 µM
		N[C@H]1CC[C@H](Nc2nccn3c(-c4cccc(NCc5cccc(Cl)c5)n4)cnc23)CC1 [Example 82, N-{3-[6-(3-Chloro-benzylamino)-pyridin-2-yl]-imidazo[1,2-a]pyrazin-8-yl}-cyclohexane-1,4-diamine; hydrochloride]	0.049 µM	0.119 µM
		N[C@H]1CC[C@H](Nc2nccn3c(-c4cccc(NCc5ccccc5)n4)cnc23)CC1 [Example 73, N-[3-(6-Benzylamino-pyridin-2-yl)-imidazo[1,2-a]pyrazin-8-yl]-cyclohexane-1,4-diamine; hydrochloride]	0.04 µM	0.077 µM
	< 0.005 µM	NCC(Nc1nccc(-c2cnc3c(N[C@H]4CC[C@H](N)CC4)nccn23)n1)c1ccccc1 (stereo partly drawn) [Example 77, N-{3-[2-(2-Amino-1-phenyl-ethylamino)-pyrimidin-4-yl]-imidazo[1,2-a]pyrazin-8-yl}-cyclohexane-1,4-diamine; hydrochloride]	0.015 µM	0.08 µM
	< 0.005 µM	CNc1nccn2c(-c3ccnc(Nc4ccccc4)n3)cnc12 [Example 20, Methyl-[3-(2-phenylamino-pyrimidin-4-yl)-imidazo[1,2-a]pyrazin-8-yl]-amine]	0.041 µM	0.052 µM
